The series has as its system rodent carcinogenicity bioassays, tumor incidence. Description: CCRIS carcinogenicity studies. Summed up:
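Archive of carcinogenicity, mutagenicity, tumor promotion and tumor inhibition results drawn from journals, NCI reports and other sources, expert-reviewed; covers 1985-2011 and is no longer updated.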

Molecules are shown by their SMILES. The source made the active and inactive calls. How the calls were made is not given here.

The values below come from PubChem BioAssay AID1259411 (Chemical Carcinogenesis Research Information System (CCRIS), 2018).

Turning to `ClC(Cl)Cl`, the carcinogen call (Species: FISH, Strain/Sex: ORYZIPIAS LATIPES/FEMALE, Route: IMMERSION, Dose: 0, 0.017, 0.151, 1.463 MG/L AQUEOUS SOLUTION FOR 6 MO (STUDY DURATION: 6 MO), Dose: 0, 0.017, 0.151, 1.463 MG/L AQUEOUS SOLUTION FOR 6 MO (STUDY DURATION: 6 MO)) is “inactive; negative”; the carcinogen call (Species: FISH, Strain/Sex: ORYZIPIAS LATIPES/FEMALE, Route: IMMERSION, Dose: 0, 0.017, 0.151, 1.463 MG/L AQUEOUS SOLUTION FOR 9 MO (STUDY DURATION: 9 MO), Dose: 0, 0.017, 0.151, 1.463 MG/L AQUEOUS SOLUTION FOR 9 MO (STUDY DURATION: 9 MO)) is “inactive; negative”; the carcinogen call (Species: FISH, Strain/Sex: ORYZIPIAS LATIPES/MALE, Route: IMMERSION, Dose: 0, 0.017, 0.151, 1.463 MG/L AQUEOUS SOLUTION FOR 6 MO (STUDY DURATION: 6 MO), Dose: 0, 0.017, 0.151, 1.463 MG/L AQUEOUS SOLUTION FOR 6 MO (STUDY DURATION: 6 MO)) is “inactive; negative”; the carcinogen call (Species: FISH, Strain/Sex: ORYZIPIAS LATIPES/MALE, Route: IMMERSION, Dose: 0, 0.017, 0.151, 1.463 MG/L AQUEOUS SOLUTION FOR 9 MO (STUDY DURATION: 9 MO), Dose: 0, 0.017, 0.151, 1.463 MG/L AQUEOUS SOLUTION FOR 9 MO (STUDY DURATION: 9 MO)) was “inactive; negative”; the carcinogen call (Species: MOUSE, Strain/Sex: B6C3F1/FEMALE, Route: ORAL, Dose: 0, 200, 400, 900, 1800 MG/L IN DRINKING WATER FOR 104 WK (STUDY DURATION: 24 MO), Dose: 0, 200, 400, 900, 1800 MG/L IN DRINKING WATER FOR 104 WK (STUDY DURATION: 24 MO)) was “inactive; negative”; the carcinogen call (Species: MOUSE, Strain/Sex: B6C3F1/FEMALE, Route: ORAL, Dose: 0, 200, 400, 900, 1800 ML/L IN DRINKING WATER FOR AN AVERAGE DOSE OF 0, 34, 65, 130, 263 MG/KG BW/D FOR 104 WK (STUDY DU, Dose: 0, 200, 400, 900, 1800 ML/L IN DRINKING WATER FOR AN AVERAGE DOSE OF 0, 34, 65, 130, 263 MG/KG BW/D FOR 104 WK (STUDY DU) is “inactive; negative”. The carcinogen call was “active; positive” (Species: MOUSE, Strain/Sex: B6C3F1/MALE,FEMALE, Route: GAVAGE, Tumor Site: Type of Lesion: LIVER: HEPATOCELLULAR CARCINOMA); “active; positive” (Species: MOUSE, Strain/Sex: BDF1/FEMALE, Route: INHALATION, Dose: 0, 5, 30, 90 PPM IN AIR, 6 HR/D, 5 D/WK FOR 104 WK (STUDY DURATION: 104 WK), Dose: 0, 5, 30, 90 PPM IN AIR, 6 HR/D, 5 D/WK FOR 104 WK (STUDY DURATION: 104 WK), Tumor Site: Type of Lesion: LIVER: HEPATOCELLULAR CARCINOMA, HEPATOCELLULAR CARCINOMA AND ADENOMA); “active; positive” (Species: MOUSE, Strain/Sex: BDF1/MALE, Route: INHALATION, Dose: 0, 5, 30, 90 PPM IN AIR, 6 HR/D, 5 D/WK FOR 104 WK (STUDY DURATION: 104 WK), Dose: 0, 5, 30, 90 PPM IN AIR, 6 HR/D, 5 D/WK FOR 104 WK (STUDY DURATION: 104 WK), Tumor Site: Type of Lesion: LIVER: HEPATOCELLULAR CARCINOMA, HEPATOCELLULAR CARCINOMA AND ADENOMA, KIDNEYS: RENAL CELL CARCINOMA, RENAL CELL ADENOMA); “inactive; negative” (Species: RAT, Strain/Sex: F344/DUCRJ/MALE, Route: INHALATION, Dose: 0;25, 50, 100 PPM VAPOR CHAMBER 6 HR/D, 5 D/WK FOR 104 WK (STUDY DURATION: 104 WK), Dose: 0;25, 50, 100 PPM VAPOR CHAMBER 6 HR/D, 5 D/WK FOR 104 WK (STUDY DURATION: 104 WK)); “active; positive” (Species: RAT, Strain/Sex: F344/DUCRJ/MALE, Route: ORAL AND INHALATION, Dose: 0, 1,000 PPM IN DRINKING WATER AND 0, 25, 50, 100 PPM VAPOR CHAMBER 6 HR/D, 5 D/WK , BOTH FOR 104 WK (STUDY DURATION: 10, Dose: 0, 1,000 PPM IN DRINKING WATER AND 0, 25, 50, 100 PPM VAPOR CHAMBER 6 HR/D, 5 D/WK , BOTH FOR 104 WK (STUDY DURATION: 10, Tumor Site: Type of Lesion: KIDNEY: ADENOMA, CARCINOMA, THYROID: ADENOMA, CARCINOMA); “inactive; negative” (Species: RAT, Strain/Sex: F344/DUCRJ/MALE, Route: ORAL, Dose: 0, 1,000 PPM IN DRINKING FOR 104 WK (STUDY DURATION: 104 WK)). For the same compound, the carcinogen call reads like this: (Species: RAT, Strain/Sex: F344/FEMALE, Route: INHALATION, Dose: 0, 10, 30, 90 PPM IN AIR, 6 HR/D, 5 D/WK FOR 104 WK (STUDY DURATION: 104 WK), Dose: 0, 10, 30, 90 PPM IN AIR, 6 HR/D, 5 D/WK FOR 104 WK (STUDY DURATION: 104 WK)) “inactive; negative”; (Species: RAT, Strain/Sex: F344/MALE, Route: INHALATION, Dose: 0, 10, 30, 90 PPM IN AIR, 6 HR/D, 5 D/WK FOR 104 WK (STUDY DURATION: 104 WK), Dose: 0, 10, 30, 90 PPM IN AIR, 6 HR/D, 5 D/WK FOR 104 WK (STUDY DURATION: 104 WK)) “inactive; negative”; (Species: RAT, Strain/Sex: OSBORNE-MENDEL/MALE, Route: GAVAGE, Tumor Site: Type of Lesion: KIDNEY: ADENOMA, CARCINOMA) “active; positive”; (Species: RAT, Strain/Sex: OSBORNE-MENDEL/MALE, Route: ORAL, Dose: 0, 200, 400, 900, 1800 MG/L IN DRINKING WATER FOR 104 WK (STUDY DURATION: 24 MO), Dose: 0, 200, 400, 900, 1800 MG/L IN DRINKING WATER FOR 104 WK (STUDY DURATION: 24 MO), Tumor Site: Type of Lesion: KIDNEY: TUBULAR CELL CARCINOMA OR ADENOCARCINOMA, TUBULAR CELL CARCINOMA, ADRENAL GLAND: CORTICAL ADENOMA, PHEOCHROMOCYT) “active; positive”; (Species: RAT, Strain/Sex: OSBORNE-MENDEL/MALE, Route: ORAL, Dose: 0, 200, 400, 900, 1800 ML/L IN DRINKING WATER FOR AN AVERAGE DOSE OF 0, 19, 38, 81, 160 MG/KG BW/D FOR 104 WK (STUDY DUR, Dose: 0, 200, 400, 900, 1800 ML/L IN DRINKING WATER FOR AN AVERAGE DOSE OF 0, 19, 38, 81, 160 MG/KG BW/D FOR 104 WK (STUDY DUR, Tumor Site: Type of Lesion: KIDNEY (TUBULAR CELL): ADENOMA OR ADENOCARCINOMA) “active; positive”; (Species: RAT, Strain/Sex: WISTAR/FEMALE, Route: ORAL, Dose: 0, 2 ML/L (24 MILLIMOLAR) IN DRINKING WATER FOR 72 WK THEN DOSE HALVED FOR DURATION OF STUDY (STUDY DURATION: LIFETIME), Tumor Site: Type of Lesion: LIVER: NEOPLASTIC NODULES) “active; positive”. For the same compound, the carcinogen call by setting is: (Species: RAT, Strain/Sex: WISTAR/MALE, Route: ORAL, Dose: 0, 2 ML/L (24 MILLIMOLAR) IN DRINKING WATER FOR 72 WK THEN DOSE HALVED FOR DURATION OF STUDY (STUDY DURATION: LIFETIME)) “inactive; negative”; (Species: Rat, Strain/Sex: F344/DuCrj/ Male (50 per group), Route: Inhalation and oral (drinking water), Dose: 0, 25, 50, 100 ppm in air, 6 hr/d, 5 d/wk for 104 wk, each group also given chloroform-formulated drinking water (1000 p, Dose: 0, 25, 50, 100 ppm in air, 6 hr/d, 5 d/wk for 104 wk, each group also given chloroform-formulated drinking water (1000 p, Tumor Site: Type of Lesion: KIDNEY: renal-cell adenomas and carcinomas) “active; positive, positive trend; significant increase in high dose group; exposure leve”; (Species: Rat, Strain/Sex: F344/DuCrj/ Male (50 per group), Route: Inhalation, Dose: 0, 25, 50, 100 ppm in air, 6 hr/d, 5 d/wk for 104 wk, Dose: 0, 25, 50, 100 ppm in air, 6 hr/d, 5 d/wk for 104 wk, Tumor Site: Type of Lesion: KIDNEY: one renal-cell adenoma in the high dose group) “inactive; negative”.
